# According to US6958318B2, “Recombinant bacterial cells for delivery of PNP to tumor cells” (The UAB Research Foundation, priority 1993, dated 2005):
# “And” between values parts separate entries of the source, which are not always exact repeats. Equal values may be shown once. “Also recorded” adds a separate entry of the source. Read-outs that look alike come from different tables or passages of the source. Marks after values point to notes of the source that are not given here.
# Tests used:
# [1] = tested on: D54 parental tumor cells (D54-wt); experiment: Wild-type D54 glioma tumors in nude mice; format: in vivo
# Description: Female athymic nude mice (nu/nu) were implanted sc with 2×10^7 cells of either D54 parental tumor cells (D54-wt) or D54 tumor cells that had been transduced with the E. coli PNP (D54-PNP). After the tumors had grown to approximately 150 mg, they were treated ip with either vehicle or 67 mg/kg of MeP-dR (IP) once a day for 3 days (days 6, 7 and 8 after implantation). The tumor sizes were measured twice a week after treatment.
# A confirmation experiment was set up exactly as described above, except that animals were treated with two doses of MeP-dR (45 and 67 mg/kg) (FIGS. 10 and 11). The results of this experiment were similar (Table V). There were 8 of 10 complete regressions in mice bearing the D54-PNP tumors that were treated with 67 mg/kg of MeP-dR. In 4 mice the tumors subsequently returned and grew. There were still 4 of 10 tumor-free survivors 60 days after the treatment had stopped. […] There were 2 of 10 complete regressions and 3 partial responses. […] The delay in the time required to double twice due to treatment with MeP-dR was 5 to 6 days in the non-transduced tumors and greater than 24 days in transduced tumors. In this experiment, the growth rate of the D54-PNP tumors was considerably slower than it was in the first experiment. There was no change in the growth rate of the D54-wt tumors. The reason for the slow growth rate of the D54-PNP tumors in this experiment is not known. […] (In other words, if a tumor was too small to measure, it was not included in the average size). This means that the overall tumor regressions in the D54 PNP group are actually much more pronounced than they appear in FIGS. 8-11.
# [2] = molecular target: T1, E. coli PNP (Escherichia coli, UniProt P0ABP8); format: biochemical
# [3] = tested on: T-84 colon carcinoma cells transfected with E. coli PNP; experiment: Toxicity of MeP-dR in T-84 cells transfected with E. coli PNP; format: cell-based, human
# Description: Cationic liposome mediated gene transfer was used to transfect T-84 colon carcinoma cells. Briefly, 6 μg of plasmid containing PNP or LacZ was added to 10 μg of a 1:1 molar mixture of DOTMA/DOPE (LipofectinJ (GIBCO/BRL, Gaithersburg, Md.)) in a final volume of 200 μl DMEM/FI2 serum free medium. After a 10 minute incubation at room temperature, the DNA-lipid mixture was added to 500 μl serum free medium and was used to cover the cells within a tray. Four hours later, transfection medium was removed from each well and 2 ml DMEM/FI2 with 10% fetal bovine serum was added.
# Forty-eight hours following transfection, fresh medium was added and MeP-dR (1 mg/ml in PBS) was added directly to the cells to achieve the desired final concentrations. Cell viability was measured 5 days following treatment as described for the MeP-dR toxicity study.
# After 5 days the cells were removed from each well and the number of dye excluding cells were determined with the aid of a hemacytometer. 30-50% toxicity due to the DOTMA-DOPE transfection protocol is acceptable for cationic liposome mediated gene transfer to T-84 in vitro when performed under optimal conditions.
# In an additional experiment, approximately 2×10^5 cells per well were transfected as above using 6 μg of plasmid containing E. coli PNP cDNA. Two days after transfection, varying concentrations of MeP-dR (0, 2, 4, 20, 40 and 160 μM) were added to the wells, and after 5 days the dye excluding cells were counted with the aid of a hemacytometer.
# An experiment was also performed in triplicate in which 2×10^5 cells per well were transfected with LacZ or PNP using the protocol described for transfection. Two days after transfection, 16 μM MeP-dR was added to one set of the cultures transfected with PNP and one set of the cultures transfected with LacZ.
# [4] = tested on: wild type murine breast carcinoma cells (16/C cell line); experiment: Wild-type 16/C tumors in nude mice; format: in vivo; conditions: FIG. 6
# Description: For studies conducted with nu/nu mice, cells obtained from stable cultures of transduced cell lines were injected subcutaneously into the right or left flank of the mice. Mice with visible tumor growth were used for further studies. For the administration of purine prodrug, mice were administered MeP-dR or F-araAMP by IP injection.
# Four to five nude (nu/nu) mice per group were inoculated with wild type murine breast carcinoma cells (16/C cell line), or PNP transduced 16/C cells. Mice with established tumors (approximately 100 mm^3) were treated with MeP-dR (100 mg/kg/d IP×3 d) or F-araAMP (100 mg/kg/IP 3 id×3 d).
# [5] = tested on: 16/C-PNP tumors; experiment: E. coli PNP-transduced 16/C tumors in B6C3F1 mice; format: in vivo
# Description: Transduced 16/C cells were implanted in mice by subcutaneous injection of approximately 10^6 cells harvested from the cultures of stably transduced 16/C cells described above. The mice were examined visibly for tumor growth and those with developing tumors were maintained. To prepare mice for use in the in vivo experiments, the tumors were removed from mice with significant tumor growth and cut into 30-60 mg pieces. One 30-60 mg piece of the tumor was subcutaneously implanted into the subaxillary region of each female B6C3F1 mouse. The tumors were allowed to develop and mice with tumors of 100 mm^3 were used.
# Six mice per group with established PNP-transduced 16/C tumors were treated with aqueous control solution, MeP-dR or F-ara AMP, as above. […] (Table III, 16/C-PNP treatment.)
# [6] = tested on: 16/C-PNP cells; experiment: 16/C-PNP tumors in athymic nude mice
# [7] = molecular target: T1, E. coli PNP; format: biochemical; remark: listed apart in the source
# [8] = IP for three days, MeP-dR 100, F-araAMP 500 mg/kg/day
# T1 sequence (P0ABP8 2-239): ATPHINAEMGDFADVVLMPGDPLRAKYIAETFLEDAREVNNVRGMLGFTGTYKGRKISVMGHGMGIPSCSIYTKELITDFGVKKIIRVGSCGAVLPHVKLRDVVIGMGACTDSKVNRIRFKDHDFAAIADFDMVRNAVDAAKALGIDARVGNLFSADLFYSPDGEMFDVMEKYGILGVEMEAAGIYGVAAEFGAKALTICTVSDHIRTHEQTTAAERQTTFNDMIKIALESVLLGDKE
smiles,measurement,setting,value
"Cc1ncnc2c1ncn2[C@H]1C[C@H](O)[C@@H](CO)O1 [MeP-dR, 9-(β-D-2-deoxyerythropentofuranosyl)-6-methylpurine]","Effect on wild-type D54 tumors, in words",[1]; 45 or 67 mg/kg,little effect; also recorded: no partial of complete remissions; also recorded: did not affect parental D54 tumor cell growth
same,Days Delay (T-C),"[1]; Table IV, 67 mg/kg",7 days
same,Doubling time,"[1]; Table IV, 67 mg/kg",21
same,Nonspecific Deaths/Total,"[1]; Table IV, 67 mg/kg",1/6
same,Regressions Partial,"[1]; Table IV, 67 mg/kg",0/6
same,Tumor-free Survival,"[1]; Table IV, 67 mg/kg",0/6
same,Regressions Complete,"[1]; Table IV, 67 mg/kg IP once a day for three days",0/6
same,Days Delay (T-C),"[1]; Table V, 45 mg/kg",5 days
same,Doubling time,"[1]; Table V, 45 mg/kg",17
same,Nonspecific Deaths/Total,"[1]; Table V, 45 mg/kg",0/10
same,Regressions Partial,"[1]; Table V, 45 mg/kg",0/10
same,Tumor-free Survival,"[1]; Table V, 45 mg/kg",0/10
same,Regressions Complete,"[1]; Table V, 45 mg/kg IP once a day for three days",0/10
same,Days Delay (T-C),"[1]; Table V, 67 mg/kg",6 days
same,Doubling time,"[1]; Table V, 67 mg/kg",18
same,Nonspecific Deaths/Total,"[1]; Table V, 67 mg/kg",0/10
same,Regressions Partial,"[1]; Table V, 67 mg/kg",0/10
same,Tumor-free Survival,"[1]; Table V, 67 mg/kg",0/10
same,Regressions Complete,"[1]; Table V, 67 mg/kg IP once a day for three days",0/10
same,Background activity in cell free extracts,[2]; non-transduced 16/C and B16 cells,0
same,E. coli PNP activity in cell free extracts,"[2]; transduced 16/C cells, n=6",10.7 nmoles MeP-dR converted/mg cell protein/hr
same,E. coli PNP activity in cell free extracts,"[2]; transduced B16 cells, n=2",2.4 nmoles MeP-dR converted/mg cell protein/hour
same,Inhibition of cell growth,"[3]; 4 μM, 5 days, 6 μg PNP plasmid",greater than 80%
same,Killing after PNP transfection,[3]; 16 μM,Substantial killing
same,Killing of cells transfected with E. coli PNP,"[3]; 160 μM, 5 days",killed virtually all of the cells
same,Effect on growth of wild-type 16/C tumors,[4],only a small effect on tumor growth
same,Complete Regressions/Total,[5]; [8],three of six and 3/6
same,Day delay (Treated-control),[5]; [8],5.4 days
same,Nonspecific Deaths/Total,[5]; [8],2/6****
same,"Delay in time for three tumor doublings, in words",[5]; p<0.01,statistically significant delay
same,"Tumor detection, early treatment group",[6]; 100 mg/kg IP days 1-4,none of the mice had any detectable tumor up to 18 days post engraftment
same,"Deaths, early treatment group","[6]; 100 mg/kg IP days 1-4, n=4",two more died at day 20
same,"Survival, late treatment group","[6]; 100 mg/kg IP days 13, 14, 15",All of these animals survived for the complete experiment
same,"Tumor size, late treatment group","[6]; 100 mg/kg IP days 13, 14, 15",did not increase in size after day 15
same,Antitumor effect of MeP-dR on PNP-transduced 16/C tumors,[6]; days 13-15 or days 1-4,substantial antitumor effects
same,MeP-dR converted to MeP,"[7]; extracts of E. coli PNP transfected T-84 cells, 100 μM, 24 hours, 25° C.",Approximately 24%
same,MeP-dR converted to MeP,[7]; extracts of LacZ transfected T-84 cells,no conversion occurred
